These results are taken from US20150158914A1, “PEPTIDES, CONSTRUCTS AND USES THEREFOR” (priority 2010, published 2015).

“Also recorded” adds a separate entry of the source. Where two headings read alike, the source gives them in different places. Ends that are not written are not given here. * marks the point of attachment. FITC = O=C1OC2(c3ccc(O)cc3Oc3cc(O)ccc32)c2ccc(NC(=S)*)cc21; Biotin = O=C1N[C@H]2[C@H](CS[C@H]2CCCCC(=O)*)N1; Acp = not defined here

One assay relates to HepG2 cells. Put plainly: Assay for cell permeability of X-protein peptides (fluorescence and confocal microscopy). The format is cell-based, human. The following applies: for uptake by HepG2 cells (cell permeability): FITC-labelled peptide 10 μM, 3 h, medium without FCS; for intracellular distribution (confocal slicing): FITC-labelled peptide, HepG2 cells. As to the method:
The cells were then incubated overnight at 37° and 5% CO2, and then washed thrice with media without FCS. The X-protein peptide in 250 μl of appropriate media without FCS was added to the cells at a final concentration of 10 μM, and the slides incubated for 3 h at 37° C. and 5% CO2. The cells were washed with PBS, fixed with 4% formaldahyde in PBS for 30 min, and washed thrice with PBS. […] The slides were dried overnight in the dark, and examined by microscopy by using a Nikon E600 fluorescent microscope. Photos were taken using Nikon ACT-1 software. For further examination, slides were then examined by confocal microscopy using a Leica TCS-SP2 confocal microscope.

The target in assay [1] is T1, X-protein N-terminal peptide 1-50 (Hepatitis B virus genotype C subtype adr, UniProt Q81163, DEL44-44/P38S/S41A/S42F/V5L).
T1 construct: The parent peptide containing aa 1-50 conjugated N-terminally to a biotin tag; purchased; host or cells: chemical synthesis
Put plainly: Peptide binding assay: FITC-peptides on peptide 1-50-coated plates. As to conditions: FITC-peptide at 10, 20, 40 μg/ml, 30 min. Here is the method:
Qligomerization peptides were received in powdered form, and were weighed and diluted in a sterile 10% DMSO solution to make a 10 mg/ml stock solution. The wells of a Reactibind neutravidin-coated 96 well plate (Thermoscientific cat #15507) were thrice washed with 200 μl of plate washing buffer. Peptide 1-50, which contains a biotin tag, was diluted to 10 μg/ml in wash buffer and 100 μl of the solution was placed into each well being used. The plate was incubated at room temperature for 2 h, and the wells washed thrice with 200 μl of wash buffer. Truncated fluorescent variants of peptide 1-50 at 40 μg/ml, 20 μg/ml, and 10 μg/ml were added to the wells in triplicate, and the plates incubated at room temperature for 30 min. The wells were then washed thrice with 200 μl of wash buffer under low light conditions, and the plate read on a Biotek fluorescent plate reader at an excitation wavelength of 490 nm and an emission wavelength of 520 nm.
A ligand-binding assay was performed using streptavidin-coated plates in order to define the minimum peptide motif needed for dimerization of the X-protein. In this scenario the X-protein monomer serves as its own ligand. […] A series of short peptides from the region encoding aa 1-50 were synthesized. The parent peptide containing aa 1-50 conjugated N-terminally to a biotin tag was added to the streptavidin coated plates. […] Non-biotinylated peptides encoding aa 1-20, 16-35, 21-40 and 34-53 were added at 10, 20, and 40 μg/ml to the wells coated with peptide aa 1-50. The smaller peptides were each conjugated to a FITC tag for detection using a fluorescent plate reader. […] Binding performed with lesser concentrations of the peptides was not significant. Even smaller peptides encompassing that region 16-35 were made to determine whether the aa 16-35 was the minimum peptide motif needed for X-protein dimerization. These peptides synthesized, namely aa 16-26, 16-24, and 16-22 were analyzed using the same peptide binding assay. […] Thus of the peptides examined, the minimal peptide motif needed for dimerization of the X-protein is the […] peptide 16-35.

The subject of another assay is X-protein. Put plainly: Western blot of X-protein in transfected HepG2 cells treated with X-protein-degradation domain fusion peptides. As to conditions: HepG2 transfected with pCDNA3.1-HBX or pCDNA3-HBX Myc; 10 μM peptide at 3 h, 24 h and 48 h post transfection. Type of assay: cell-based, hepatitis B virus. A general note: Immunoblotting shows a protein as a band on a membrane.

The subject of assay [2] is WM-266-4 melanoma cells. The experiment in a line: Apoptosis by anti-B-raf antibody delivered with the carrier peptide (Annexin-V fluos). Type of assay: cell-based. As to conditions: 1 μg/ml, 3 h.
Experimental: The carrier peptide-rabbit anti-B-raf antibody conjugate (1 μg/ml), the unconjugated carrier peptide and unconjugated anti-B-raf antibody (1 μg/ml) were added to WM-266-4 melanoma cells, and cell apoptosis was assessed after 3 h by addition of Annexin-V fluos, with visualization by fluorescence microscopy. Untreated cells were included as an additional control. Cell nuclei were stained with DAPI. The results were merged to illustrate the numbers of cells that underwent apoptosis compared with the total number of cells ie the proportion of cells that underwent apoptosis.
Assay [3] deals with TK-1 T cells adherent to MAdCAM-1. Put plainly: Carriage of a foreign peptide into TK-1 cells. Type of assay: cell-based. The following applies: 50 μM, 30 min, streptavidin-FITC detection. As to the method:
Eight-well glass chamber slides were coated overnight at 4° C. with MAdCAM-1-Fc. They were blocked with FCS at RT for 2 h. TK-1 T cells were activated with 2 mM Mn2+/Ca2+ in HBSS buffer and added to MAdCAM-1 coated glass slides, followed by incubation for 15 min. Peptides […] (SEQ ID NO 15) and R9YDRREY (SEQ ID NO 14) were added at 50 μM followed by incubation for 30 min. The cells were fixed overnight in 4% PFA, permeabilised with PBS+0.1% Tween 20 for 15 min, blocked with 3% BSA in PBS for 1 h, and the presence of the peptides detected with FITC-Streptavidin (1:200 dilution in 3% BSA in PBS 1 h). Slides were mounted with Prolong gold with DAPI.
The X-protein cell-permeable peptide LCLRPVG (SEQ ID NO: 2) was fused to the hexapeptide YDRREY (SEQ ID NO 16) taken from the cytoplasmic domain of the human integrin β7 subunit. The peptides were separated by a glycine linker, and a biotin tag was added N-terminally. The fusion peptide was compared with the YDRREY (SEQ ID NO 16) peptide fused to an R9 (SEQ ID NO: 145) carrier peptide for its ability to enter TK-1 T cells adherent to MAdCAM-1.

For the next assay, the target named is mutated B-Raf (Homo sapiens, UniProt P15056, V600E). As to conditions: in vivo; cited from earlier work.
Sequence of mutated B-Raf (P15056 whole entry V600E): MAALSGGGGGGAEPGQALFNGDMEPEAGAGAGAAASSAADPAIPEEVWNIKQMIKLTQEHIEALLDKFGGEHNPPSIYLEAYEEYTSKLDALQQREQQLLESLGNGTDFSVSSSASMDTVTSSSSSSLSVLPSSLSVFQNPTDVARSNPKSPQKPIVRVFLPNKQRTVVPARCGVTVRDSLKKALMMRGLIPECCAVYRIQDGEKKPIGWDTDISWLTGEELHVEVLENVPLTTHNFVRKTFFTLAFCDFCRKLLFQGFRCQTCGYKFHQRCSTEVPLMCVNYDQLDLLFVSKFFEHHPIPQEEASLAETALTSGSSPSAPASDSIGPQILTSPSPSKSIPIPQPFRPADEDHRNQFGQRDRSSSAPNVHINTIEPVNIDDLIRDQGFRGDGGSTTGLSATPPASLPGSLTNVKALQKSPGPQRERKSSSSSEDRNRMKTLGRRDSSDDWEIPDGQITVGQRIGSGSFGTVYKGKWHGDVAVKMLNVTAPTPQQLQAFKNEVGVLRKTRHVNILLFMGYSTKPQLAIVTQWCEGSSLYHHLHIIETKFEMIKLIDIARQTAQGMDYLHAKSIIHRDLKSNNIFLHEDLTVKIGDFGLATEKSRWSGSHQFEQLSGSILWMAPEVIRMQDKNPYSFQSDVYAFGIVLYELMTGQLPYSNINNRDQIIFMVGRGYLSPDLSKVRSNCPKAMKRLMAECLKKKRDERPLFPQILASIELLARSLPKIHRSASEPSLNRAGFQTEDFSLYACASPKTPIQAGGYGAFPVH
For the next assay, the system named is C32 melanoma cells. As to conditions: C32, 10 μM, 3 h. As to the method:
(§1) The melanoma cell lines WM-266-4 and C32 were seeded into 8-well chamber slides at 1×10^5 cells per well in full MEM media and incubated at 37° C. and 5% CO2 overnight. The next day the cells were washed thrice with serum-free MEM, resuspended in 500 μl of the same medium, and added to the wells. […] Annexin-V labelling solution was prepared by adding 20 μl of Annexin V labelling reagent and 10 μl of propidium iodide in 1 ml of incubation buffer. The cells were washed with incubation buffer, and 100 μl of Annexin-V labelling solution was added, followed by incubation for 15 min in the dark. The cells were washed with incubation buffer, fixed with 4% formaldehyde in PBS for 30 min, washed with PBS and slide chambers removed. A drop of Prolong Gold anti-fade reagent with DAPI was added to each sample, the slides dried overnight, and then examined by fluorescence microscopy.

Assay [4] relates to WM-266-4 melanoma cells. The following applies: WM-266-4, 20 μM, 3 h. Here is the method:
as §1

Setting [5] is: listed as biotin-RRRRRRRRHKLVRSPAPCKFFTSAGGLNVTAPTPQQLQAFKNEVGVLRK

Regarding “FITC-LCLRPVGAE ({FITC}-LCLRPVGAE) [Peptide 16-24]”, the “uptake by HepG2 cells (cell permeability)” value (“uptake by HepG2 cells” below) in the assay on HepG2 cells (listed as aa 16-24) is given as “cell-permeable, being taken up by cells at a level equivalent to that of the parental peptide aa 16-35”. For the same compound, in assay [1], the “binding to peptide 1-50 (fluorescence)” value is reported as “could not match the strong binding shown by the parental peptide 16-35”.
“FITC-Acp-RRRRRRRRMLAPYIPMGGLCLRPVGAESRGRPVSGPFG”: the “degradation of the X-protein (Western blot, nuclear fraction)” value with X-protein is reported as “complete degradation of the X-protein”.
With “MAARLCCQ (cysteine pairing not given here; also: fluorescein label, position not given here) [Peptide 1-8]”, the “uptake by HepG2 cells” value with HepG2 cells is “cell-permeable”.
On to LCLRPVGAESRGRPV [Peptide 16-30], for which, in assay [1], the “binding to peptide 1-50 (fluorescence)” value is given as “binds to the X-protein N-terminal peptide 1-50; also recorded: bound peptide 1-50 even more strongly than peptide 16-35”.
Regarding Biotin-LCLRPVGGGRRRQQQQQQRRR, in the assay with WM-266-4 melanoma cells [2], the cell apoptosis entry is “no detectable effect”.
As for “Biotin-RRRRRRRRLCLRPVGAESRGRPVSGPFGGCRHKLVRSPAPCKFFTSA (cysteine pairing not given here)”, in the assay with X-protein, the “degradation of the X-protein (Western blot, nuclear fraction)” value is given as “near complete degradation of the X-protein, with slight preference for the full length protein”.
Take “FITC-Acp-MAARLCCQLDPARDVLCLRP [Peptide 1-20]”: the “uptake by HepG2 cells” value in the assay with HepG2 cells (listed as aa 1-20) is “cell-permeable; also recorded: readily taken up by the cells”. Further, in the assay with HepG2 cells, the “intracellular distribution (confocal slicing)” value is “taken up into the cell cytoplasm, as well as into the nucleus”.
“R9YDRREY (RRRRRRRRRYDRREY; not fully specified (N-terminus); also: biotin, position not given here) [Peptide R9YDRREY, biotinylated YDRREY peptide fused to an R9 carrier peptide, reference compound]”: the “uptake of biotinylated fusion peptide into TK-1 cells” value in assay [3] is on record as “entered all the cells”.
For “FITC-Acp-VGAESRGRPVSGPFGPLSSP ({FITC-Acp}-VGAESRGRPVSGPFGPLSSP; reading uncertain; also: printed as FITC-Acp-VGAESRGRPVSGPFGPLSSP) [Peptide 21-40]”, the “uptake by HepG2 cells” value in the assay with HepG2 cells is on record as “not cell-permeable”. Moreover, the “binding to peptide 1-50 (fluorescence)” value in assay [1] is “failed to appreciably bind peptide 1-50”.
Turning to “FITC-LCLRP ({FITC}-LCLRP) [Peptide 16-20]”, in the assay with HepG2 cells (listed as aa 16-20), the “uptake by HepG2 cells” value is given as “cell-permeable; also recorded: taken up into the cells”.
In the case of `CCCS(=O)(=O)Nc1ccc(F)c(C(=O)c2c[nH]c3ncc(-c4ccc(Cl)cc4)cc23)c1F` [PLX4032], at mutated B-Raf, the “patients with regression of melanomas” value was 80 % of patients.
Turning to “FITC-Acp-RRRRRRRRLCLRPVGAESRGRPVSGPFGGMLAPYIPM”, in the assay with X-protein, the “degradation of the X-protein (Western blot, nuclear fraction)” value is “near complete degradation of the X-protein”.
For “LCLRPVGGYDRREY (Biotin-LCLRPVGGYDRREY) [biotinylated LCLRPVG fused via glycine linker to β7 integrin hexapeptide YDRREY]”, the “uptake of biotinylated fusion peptide into TK-1 cells” value in assay [3] was “uniformly taken up in similar amounts by all cells”.
For “FITC-LCLRPVGAESR ({FITC}-LCLRPVGAESR) [Peptide 16-26]”, the “uptake by HepG2 cells” value with HepG2 cells (listed as aa 16-26) is listed as “cell-permeable, being taken up by cells at a level equivalent to that of the parental peptide aa 16-35”. Moreover, in assay [1], the “binding to peptide 1-50 (fluorescence)” value is “could not match the strong binding shown by the parental peptide 16-35”.
For the compound “Biotin-RRRRRRRRHKLVRSPAPCKFFTSAGGLCLRPVGAESRGRPVSGPFG (cysteine pairing not given here)”, the “degradation of the X-protein (Western blot, nuclear fraction)” value with X-protein is reported as “complete degradation of the X-protein”.
MAARLCCQLDPARDV [Peptide 1-15]: the “uptake by HepG2 cells” value in the assay on HepG2 cells (listed as aa 1-15) was “cell-permeable; also recorded: taken up into the cells”. Besides, in the assay with HepG2 cells, the “intracellular distribution (confocal slicing)” value is “taken up into the cytoplasm and nucleus”.
“Biotin-RRRRRRRRHKLVRSPAPCKFFTSAGGLNVTAPTPQQLQAFKNEVGVLRK [B-Raf targeting peptide]”: the “tumour cell death / apoptosis” value in the assay with C32 melanoma cells was “killed the melanoma cells”; in the assay on C32 melanoma cells (setting [5]) it was “led to tumour cell death”; with WM-266-4 melanoma cells [4], “killed the melanoma cells”; in the assay on WM-266-4 melanoma cells [4] (setting [5]), “led to tumour cell death”.
As to “FITC-Acp-FGPLSSPAFSVPADHGAHLS ({FITC-Acp}-FGPLSSPAFSVPADHGAHLS; reading uncertain; also: printed as FITC-Acp-FGPLSSPAFSVPADHGAHLS) [Peptide 34-53]”, the “uptake by HepG2 cells” value with HepG2 cells is reported as “not cell-permeable”.
